Measurements published in paper PMC11645267, “Novel pharmacologic inhibition of lysine-specific demethylase 1 as a potential therapeutic for glioblastoma” (Cancer Gene Therapy, 2024).

Tested on: GSC1228 cells
Experiment: ChIP-seq analysis of histone modifications
Assay type: cell-based, human
Settings: GSC1228, 5 μM, versus DMSO
Description: Cells (1 × 10^6) were treated with 1% formaldehyde for 8 min to crosslink histones to DNA. After washing with cold PBS, cell pellets were lysed with lysis buffer (10 mM Tris-HCl, 0.25% Triton X-100, 10 mM EDTA, and 0.1 M NaCl). Cell nuclei were collected after centrifugation and re-suspended in SDS lysis buffer (1% SDS, 150 mM NaCl, 50 mM HEPES-KOH, 2 mM EDTA, 1% Triton X-100, and 0.1% sodium deoxycholate). Chromatin was sonicated using Covaris S220 (Covaris, Moburn, MA, USA). Lysates were incubated overnight with 50 μL of Dynabeads Protein G (Thermo Fisher Scientific) which were pre-coated with 4 μL of anti-H3K4me1 antibody (ab8895, Abcam, Cambridge, UK), 3 μL of anti-H3K4me2 antibody (#39141, Active Motif), 2.5 μL of anti-H3K4me3 antibody (#39159, Active Motif), 4 μL of anti-H3K9me2 antibody (ab1220, Abcam). The beads were washed and protein-DNA complexes were eluted with elution buffer (1% SDS, 10 mM EDTA, and 50 mM Tris-HCl) and then treated with RNase for 2 h at 37°C followed by proteinase K treatment overnight. DNA was extracted by the phenol/chloroform method, ethanol-precipitated and re-suspended in 0.1 × TE buffer. 10% of the lysate was treated with RNase and proteinase K and de-crosslinked as input samples.
ChIP DNA (n = 2 for each antibody in each condition) was used to make sequence libraries using NEBNext Ultra II DNA library Prep kit for the Illumina (New England Biolabs, Ipswich, MA, USA). Library quality was checked using the Agilent Bioanalyzer 2100 (Agilent Technologies, Santa Clara, CA, USA) and then libraries were run on an Illumina Hiseq XTen (Illumina, San Diego, CA, USA).
ChIP-seq clean reads were obtained from raw reads by the removal of adaptors and low-quality reads. The clean reads were aligned to the human genome (hg38) using Bowtie2 (version 2.4.2). The levels of histone modification at gene promoters were estimated by counting the numbers of reads mapped within a 2-kb region around the transcriptional start site using MACS2 [30] and HOMER [31]. Differential analysis of peaks and generation of heatmap were performed using BEDtools v2.30.0 [32]. HOMER was used to annotate ChIP-seq peaks for genomic location and link these peaks to nearby genes. TF binding motif analysis was performed using HOMER. BEDtools was used to obtain overlap peaks with super-enhancers and H3K4me2 peaks. Furthermore, we used our deposited GSC316 H3K27ac ChIP-seq data (GSE178471) and identified super-enhancers by the Rank Ordering of Super Enhancer (ROSE) algorithm. From this analysis, we identified 672 super-enhancers.
To precisely evaluate the effects of S2172 on histone modifications at a genome-wide scale, we performed ChIP-seq analysis in GSC1228 cells treated with either DMSO or S2172. […]

NC1CCC(NC2CC2c2cc(F)cc(F)c2OCc2ccccc2)CC1 (stereo not shown) [S2172]
de novo H3K4me3 regions after treatment: 2582 regions | new H3K4me2 regions (de novo regions) after treatment: 20,085 regions | regions already modified by H3K4me2 with increased H3K4me2 after treatment: 25,326 regions | regions from which H3K4me2 was lost after treatment: 5788 regions
